Assay results as given in patent US11236122B2, “Triterpene amine derivatives” (DFH THERAPEUTICS, priority 2018, dated 2022).

Columns and labels:
[1] = tested on: WT pNL4-3; assay: CA-SP1 accumulation assay, WT NL4-3; type: cell-based, HIV-1; details: 10 nM compound, HeLa or 293T cells
Experimental: (§1) Cell culture, plasmids and transfections. The MT-4 T-cell line was maintained in RPMI-1640 medium supplemented with 10% (vol/vol) fetal bovine serum (FBS), 2 mM glutamine, 100 U/mL penicillin and 100 μg/mL streptomycin at 37° C. in a humidified 5% CO2 atmosphere. HeLa and 293T cells were maintained in Dulbecco's modified Eagle's medium (DMEM) supplemented with 5% (vol/vol) FBS, 2 mM glutamine, 100 U/mL penicillin and 100 μg/mL streptomycin. Molecular clones used in this study were WT pNL4-3 and the derivative encoding a Val-to-Ala mutation at SP1 residue 7, referred to as SP1-V7A. The MT-4 T-cell line was transfected the DEAE/dextran procedure; HeLa and 293T cells were transfected with linear polyethylenimine (L-PEI) or Lipofectamine 2000 (Invitrogen) as recommended by the supplier.
(§2) CA-SP1 accumulation assay. For CA-SP1 accumulation assays, HeLa or 293T cells were transfected with WT pNL4-3 or the SP1-V7A derivative. At 24 h post-transfection, cells were starved in Met/Cys-free medium for 30 min and metabolically labeled with [^35S]Met/Cys-Pro-mix (Amersham) for 2-3 h. Maturation inhibitors were maintained in the cultures throughout the transfection and labeling period. Viruses were collected by ultracentrifugation at 99,000×g for 45-60 min. Virus pellets were resuspended in Triton X-100 lysis buffer [300 mM NaCl, 50 mM Tris-HCl (pH 7.5), 0.5% Triton X-100, 10 mM iodoacetamide, and protease inhibitor cocktail tablets (Roche)]. CA and CA-SP1 proteins were separated on 13.5-15% polyacrylamide gels by SDS-polyacrylamide gel electrophoresis, exposed to a phosphorimager plate (Fuji) and quantified by Quantity One software (Bio-Rad).

[2] = tested on: pNL4-3 SP1-V7A; assay: CA-SP1 accumulation assay, SP1-V7A derivative; type: cell-based, HIV-1; details: 10 nM compound, HeLa or 293T cells
Experimental: as §1, §2

[3] = tested on: panel of HIV-1 isolates in human PBMCs; assay: PBMC antiviral assay against a panel of HIV-1 isolates (RT activity); type: cell-based; details: Human immunodeficiency virus 1, PBMC
Experimental: Antiviral assays. To produce HIV-1 stocks, 293T cells were transfected with WT pNL4-3 or the SP1-V7A derivative and culture supernatants were collected 24 h post transfection. RT-normalized virus supernatants were used to infect MT-4 cells at room temperature for 30 min. Cells were then cultured in the presence of serial dilutions of compounds. At 4 d post-infection, the culture supernatants were subjected to RT assay to monitor viral replication. The 50% inhibitory concentrations (IC50s) were defined as compound concentrations that reduced RT levels to 50% those measured in the absence of inhibitor (DMSO only controls) using GraphPad Prism 6 software. The IC50s in primary peripheral blood mononuclear cells (PBMCs) were calculated with a multi-clade panel of HIV-1 isolates by Southern Research Institute (Frederick, Md.). The PBMCs were stimulated with phytohemagglutinin (PHA) and IL-2 prior to use in the antiviral assays.
Virus Isolates. Compound evaluation against a panel of HIV-1 isolates were performed by the Southern Research Institute (SRI). The viruses were chosen to include one isolate from each of the seven HIV-1 Group M envelope subtypes A, B, C, D, E, F, and G, as well as isolates from HIV-1 Groups O and N. In addition, various drug resistant HIV-1 isolates were included for evaluation. The HIV-1 isolates selected include CCR5-tropic and CXCR4-tropic isolates. Unless otherwise noted, all virus isolates were obtained from the NIH AIDS Research and Reference Reagent Program. Virus isolate 1022-48 was obtained from Dr. William A. Schief of Merck Research Laboratories. MDR769 and MDR807 were obtained from Dr. Thomas C. Merigan of Stanford University. A low passage stock of each virus was prepared using fresh human PBMCs and stored in liquid nitrogen. Pre-titered aliquots of each virus were removed from the freezer and thawed rapidly to rt in a biological safety cabinet immediately before use.
(§3) Human PBMC Preparation. Fresh human PBMCs were isolated from screened donors, seronegative for HIV and HBV (Biological Specialty Corporation, Colmar, Pa.). Cells were pelleted/washed 2-3 times by low speed centrifugation and resuspension in Dulbecco's phosphate buffered saline (PBS) to remove contaminating platelets. The leukophoresed blood was then diluted 1:1 with PBS and layered over 14 mL of Ficoll-Hypaque density gradient (Lymphocyte Separation Medium, Cell Grow #85-072-CL, density 1.078+/−0.002 g/mL) in a 50 mL centrifuge tube and then centrifuged for 30 min at 600×g. Banded PBMCs were gently aspirated from the resulting interface and subsequently washed twice with PBS by low speed centrifugation. After the final wash, cells were enumerated by trypan blue exclusion and re-suspended at 1×10^6 cells/mL in RPMI 1640 supplemented with 15% Fetal Bovine Serum (FBS), 2 mM L-glutamine, 100 U/mL penicillin, […] streptomycin, and 4 μg/mL Phytohemagglutinin (PHA; Sigma, St. Louis, Mo.; cat #L1668). The cells were allowed to incubate for 48-72 h at 37° C. After incubation, PBMCs were centrifuged and resuspended in RPMI 1640 with 15% FBS, L-glutamine, penicillin, streptomycin, non-essential amino acids (MEM/NEAA; Hyclone; cat #SH30238.01), and 20 U/mL recombinant human IL-2 (R&D Systems Inc., Minneapolis, Minn.; cat #202IL). PBMCs were maintained in this medium at a concentration of 1-2×10^6 cells/mL, with twice-weekly medium changes until they were used in the assay protocol. Monocytes-derived-macrophages were depleted from the culture as the result of adherence to the tissue culture flask.
PBMC Assay. For the standard PBMC assay, PHA stimulated cells from at least two normal donors were pooled (mixed together), diluted in fresh medium to a final concentration of 1×10^6 cells/mL, and plated in the interior wells of a 96 well round bottom microplate at 50 μL/well (5×10^4 cells/well) in a standard formate developed by the Infectious Disease Research Department of the SRI. […]

[4] = in vitro; type: cell-based; details: human
Experimental: as §3
(§4) PBMC Assay. For the standard PBMC assay, PHA stimulated cells from at least two normal donors were pooled (mixed together), diluted in fresh medium to a final concentration of 1×10^6 cells/mL, and plated in the interior wells of a 96 well round bottom microplate at 50 μL/well (5×10^4 cells/well) in a standard formate developed by the Infectious Disease Research Department of the SRI. Pooling (mixing) of mononuclear cells from more than one donor was used to minimize the variability observed between individual donors, which results from quantitative and qualitative differences in HIV infection and overall response to the PHA and IL-2 of primary lymphocyte populations. Each plate contains virus control wells (cells plus virus) and experimental wells (drug plus cells plus virus). Test drug dilutions were prepared at a 2× concentration in microtiter tubes and 100 μL of each concentration was placed in appropriate wells using the standard format. 50 μL of a predetermined dilution of virus stock was placed in each test well (final MOI≈0.1). Separate plates were prepared identically without virus for drug cytotoxicity studies using an MTS assay system (described below; cytotoxicity plates also include compound control wells containing drug plus media without cells to control for colored compounds that affect the MTS assay). The PBMC cultures were maintained for seven days following infection at 37° C., 5% CO2. After this period, cell-free supernatant samples were collected for analysis of reverse transcriptase activity, and compound cytotoxicity was measured by addition of MTS to the separate cytotoxicity plates for determination of cell viability. Wells were also examined microscopically and any abnormalities were noted.
(§5) MTS Staining for PBMC Viability to Measure Cytotoxicity. At assay termination, the uninfected assay plates were stained with the soluble tetrazolium-based dye MTS (CellTiter 96 Reagent, Promega) to determine cell viability and quantify compound toxicity. MTS is metabolized by the mitochondria enzymes of metabolically active cells to yield a soluble formazan product, allowing the rapid quantitative analysis of cell viability and compound cytotoxicity. […] At termination of the assay, […] of MTS reagent was added per well and the microtiter plates were then incubated at 37° C., 5% CO2 to assess cell viability. […]

[5] = tested on: human PBMCs; assay: in vitro; type: cell-based; details: 7 days
Experimental: as §3, §4, §5

| Structure (SMILES) | % CA-SP1 Accumulation 10 nM NL4-3 [1] [%] | % CA-SP1 Accumulation 10 nM SP1 V7A [2] | IC50 ([3]; isolate 92RW009, PBMC) [nM] | IC50 ([3]; isolate 92UG001, PBMC) [nM] | IC50 ([3]; isolate 93BR020, PBMC) [nM] | IC50 ([3]; isolate 93BR029, PBMC) [nM] | IC50 ([3]; isolate 93IN101, PBMC) [nM] | IC50 ([3]; isolate 99UGA07412MI, PBMC) [nM] | IC50 ([3]; isolate BCF02, PBMC) [nM] | IC50 ([3]; isolate CMU02, PBMC) [nM] | IC50 ([3]; isolate JV1083, PBMC) [nM] | CC50 at 7 days [4] [nM] | CC50 [5] [nM] |
| --- | --- | --- | --- | --- | --- | --- | --- | --- | --- | --- | --- | --- | --- |
| C=C(C)[C@@H]1CC[C@]2(CCNCCN3CCN(Cc4cccc(F)c4)CC3)CC[C@]3(C)[C@H](CC[C@@H]4[C@@]5(C)CC[C@H](OC(=O)CC(C)(C)C(=O)O)C(C)(C)[C@@H]5CC[C@]43C)[C@@H]12 [Compound 51m, (3β)-17-[2-[[2-[4-(3-Fluorophenylmethyl)piperazin-1-yl]ethyl]amino]ethyl]-28-norlup-20(29)-en-3-ol, 3-(1-Hydrogen 2,2-Dimethylbutanedioate)] | 53.7 | 40.3 (3) % | 27.9 | 7.9 | 8.4 | 10.8 | 21.5 | 17.8 | 16.7 | 18.8 | > 1000 | > 1000 | > 1000 |
| C=C(C)[C@@H]1CC[C@]2(CCNCCN3CCN(Cc4ccc(Cl)cc4)CC3)CC[C@]3(C)[C@H](CC[C@@H]4[C@@]5(C)CC[C@H](OC(=O)CC(C)(C)C(=O)O)C(C)(C)[C@@H]5CC[C@]43C)[C@@H]12 [Compound 51n, (3β)-17-[2-[[2-[4-(4-Chlorophenylmethyl)piperazin-1-yl]ethyl]amino]ethyl]-28-norlup-20(29)-en-3-ol, 3-(1-Hydrogen 2,2-Dimethylbutanedioate)] | 46.9 | 38.2 (3) % | 25.9 | 5.3 | 12.8 | 18.4 | 23.3 | 31.4 | 22 | 17.3 | 311 | > 1000 | > 1000 |
| C=C(C)[C@@H]1CC[C@]2(CCNCCN3CCN(Cc4cccc(Cl)c4)CC3)CC[C@]3(C)[C@H](CC[C@@H]4[C@@]5(C)CC[C@H](OC(=O)CC(C)(C)C(=O)O)C(C)(C)[C@@H]5CC[C@]43C)[C@@H]12 [Compound 51o, (3β)-17-[2-[[2-[4-(3-Chlorophenylmethyl)piperazin-1-yl]ethyl]amino]ethyl]-28-norlup-20(29)-en-3-ol, 3-(1-Hydrogen 2,2-Dimethylbutanedioate)] | 55.7 | 39.4 (3) % | 60.9 | 8.1 | 13.2 | 14.8 | 24.8 | 33.2 | 38.1 | 25 | 220 | > 1000 | > 1000 |
| C=C(C)[C@@H]1CC[C@]2(CCNCCN3CCN(Cc4ccc5ccccc5c4)CC3)CC[C@]3(C)[C@H](CC[C@@H]4[C@@]5(C)CC[C@H](OC(=O)CC(C)(C)C(=O)O)C(C)(C)[C@@H]5CC[C@]43C)[C@@H]12 [Compound 51r, (3β)-17-[2-[[2-[4-(2-Naphthalenylmethyl)piperazin-1-yl]ethyl]amino]ethyl]-28-norlup-20(29)-en-3-ol, 3-(1-Hydrogen 2,2-Dimethylbutanedioate)] | 44.3 | 34.1 (3) % | > 1000 | 25.5 | 26 | 22.3 | 207 | 370 | 62.3 | > 1000 | > 1000 | > 1000 | > 1000 |
